Patent publication US12138336B2, “Personal care composition comprising water insoluble solid organic compound” (The Procter & Gamble Company, priority 2018, dated 2024)
≈ marks a conversion by molar mass, not a printed value. Like-named read-outs stand apart in the source and are kept apart here. One block for each molecule: values may come before it.

Key:
[1] = Water solubility at 25° C.; assay type: physicochemical; settings: for solubility: water, 25 °C
[2] = Di-electric constant, BI-870 Liquid Dielectric Constant Meter; assay type: physicochemical; settings: third liquid compounds; room temperature (23.1-23.4° C.)
Method: Dielectric constant is measured at room temperature (23.1 ˜23.4° C.) using BI-870 Liquid Dielectric Constant Meter (Brookhaven Instruments, Corp., New York).

[3] = Crystals of the solid organic compound present in the composition at 25° C. or not; assay type: physicochemical; settings: added dissolved in ethanol/water mixture; cationic surfactant and high melting point fatty compounds; especially at higher amount
[4] = known property; cited from earlier work
[5] = first liquid oily compounds, read-out: Solubility in H2O
[6] = solid organic compounds, 25° C.
[7] = third liquid compounds, read-out: Solubility in H2O

- solubility [1, 5]: 91.7 µg/mL (≈ 405 µM)
Compound: CCCCCC1C(=O)CCC1CC(=O)OC (stereo not shown) [Methyl Dihydro Jasmonate]

- Water Solubility [1, 6]: 1410 µg/mL
Compound: Cc1cc(C2CCCCC2)n(O)c(=O)c1 [Ciclopirox, reference compound]

- solubility [1, 7]: 43000 µg/mL (≈ 398000 µM)
- Di-electric constant [2]: 13.69
Compound: OCc1ccccc1 [Benzyl Alcohol]

- solubility [1, 7]: 26000 µg/mL (≈ 188000 µM)
Compound: OCCOc1ccccc1 [Phenoxyethanol]

- solubility ([1]; solid organic compounds, 25° C., read-out: Water Solubility): 240 µg/mL (≈ 1010 µM)
Compound: Cc1cc(CC(C)CC(C)(C)C)n(O)c(=O)c1 (stereo not shown) [Piroctone, reference compound]

- Solubility in H2O ([1]; first liquid oily compounds): Negligible (lower than 0.1) g/L
Compound: CCCCCCCCCCCC(=O)N(C)CC(=O)OC(C)C [Isoropyl N-Lauroyl Sarcosinate]

- Water Solubility [1, 6]: 4450 µg/mL
Compound: Cc1cc(C2CCCCC2)n(O)c(=O)c1 [Ciclopirox Olamine, reference compound]

- solubility [1, 5]: 2.75 µg/mL (≈ 12.7 µM)
Compound: CCCCCCC(C=O)=Cc1ccccc1 [Hexyl Cinnamic Aldehyde]

- Water Solubility [1, 6]: 30 µg/mL
- Crystal formation in aqueous hair conditioning compositions [3]: forms crystals
Compound: Cc1cc(CC(C)CC(C)(C)C)n(O)c(=O)c1.NCCO (stereo not shown) [Piroctone Olamine]
- Solubility in water, in words [4]: very limited solubility in water

- Solubility in H2O ([1]; first liquid oily compounds): Negligible (lower than 0.1) g/L
Compound: C=CC(C)CCCC(C)(C)O (stereo not shown) [Dihydro Myrcenol]
